One molecule from patent US20020071842A1, “Soluble CD1 compositions and uses thereof” (priority 2000, published 2002) can be followed below.

What all share (type): cell-based, human
Experiment [1] concerns T cells in PBMCs purified from a healthy donor. The experiment can be described thus: Three color flow cytometric staining of PBMCs with lipid loaded CD1d-Fc aggregates. Conditions: CD1d-Fc aggregate treated with antigen, anti-CD3 and anti-CD161 co-staining. Here is the method: (§1) To facilitate binding to CD1 specific T cells for detection by flow cytometry, a highly multimerized form of the CD1d fusion protein was formed using fluorescently labeled protein A molecules. Protein A molecules spontaneously associate in solution at neutral pH with immunoglobulin Fc regions, forming complexes containing four Fc molecules and two protein A molecules (4+2 complexes, reference 2). The human CD1d-Fc fusion protein was incubated with Alexa 488 dye labeled protein A, and the 4+2 complexes purified by size exclusion chromatography on a Pharmacia Superose 6 column using PBS pH 7.2 as a running buffer. The purified 4+2 aggregates were concentrated to 100 μg/ml with ovalbumin as a carrier protein. The CD1d-Fc aggregate was then pre-incubated for 24 to 48 hours at 37° C. with antigenic glycolipids dissolved in DMSO at a 40:1 molar ratio of lipid to fusion protein, or with an equivalent volume of DMSO alone as a negative control. The T cell staining was performed at room temperature or 4° C. for 20 min, at a concentration of 40 μg/ml of the lipid or control treated CD1d-Fc aggregate.
(§2) To facilitate binding to CD1 specific T cells for detection by flow cytometry, a highly multimerized form of the CD1d fusion protein is formed using fluorescently labeled protein A molecules. […]

Experiment [2] has as its system T cell clones that are not CD1d-restricted. The experiment can be described thus: Flow cytometric staining with lipid treated multimerized CD1d-Fc aggregates. Conditions: flow cytometry; 4 T cell clones that are not CD1d-restricted. How it is done:
as §1, §2
(In general: In flow cytometry, cells or beads pass a laser one at a time.)

For experiment [3], the system named is T cell lines and clones isolated from peripheral blood. Briefly: Functional analysis (cytokine secretion) of T cell lines and clones sorted with α-GalCer treated CD1d-Fc. Conditions: in the presence of antigen. The text has this: T cell lines and clones stained with the α-GalCer treated CD1d-Fc aggregates were isolated from peripheral blood by flow cytometric cell sorting and limiting dilution cloning, and cultured using standard techniques. […] Cytokine secretion was enhanced in the presence of α-GalCer.

Molecules are shown by their SMILES.

Turning to `CCCCCCCCCCCCCCCCCCCCCCCCCC(=O)N[C@@H](CO[C@H]1O[C@H](CO)[C@H](O)[C@H](O)[C@H]1O)[C@H](O)[C@H](O)CCCCCCCCCCCCCC` [α-GalCer, α-galactosylceramide], in experiment [1], the “T cells stained relative to CD1d-Fc treated with DMSO alone” value is “about 6 fold” and the “T cells stained relative to the UPC10 negative control” value was “about 10 fold”. Also, the “staining of non-CD1d-restricted T cell clones by lipid treated CD1d fusion protein” value in experiment [2] is “no staining”. Further, the “cytokine secretion in response to CD1d-transfected antigen presenting cells” value in experiment [3] is reported as “enhanced”.
